Active and inactive are the calls of the source. The rule behind the calls is not given here.
How the values were obtained:
EBTr [1] = assay: Antiviral activity against Bovine viral diarrhea virus Oregon C24V genotype 1 […] infected in bovine EBTr cells assesed as inhibition of virus-induced cytopathic effect at 20 to 100 uM after 72 hrs by MTT assay; type: functional, cell-based; settings: Bovine viral diarrhea virus strain Oregon C24V
HepG2 [2] = assay: Cytotoxicity against human HepG2 cells after 72 hrs by formazan test; type: functional, cell-based; settings: for IC50: HepG2, 72 h
[3] = Acute toxicity in bovine EBTr cells infected with BVDV assessed as reduction in cell viability at 50 uM after 72 hrs; type: cell-based, Bos taurus; settings: cattle
SK-HEP1 [4] = assay: Cytotoxicity against human SKHEP1 cells after 72 hrs by formazan test; type: functional, cell-based; settings: for IC50: SK-HEP1, 72 h
[5] = Cytotoxicity against human HepG2(2.2.15) cells assessed as reduction in cell viability at 0.1 uM measured on day 21 by natural Red test; type: cell-based; settings: hepg2 2.2.15, 0.1 µM
[6] = Cytotoxicity against bovine EBTr cells up to 100 uM after 72 hrs by MTT assay; type: cell-based, Bos taurus; settings: cattle
[7] = (§1) Cytotoxicity against human LS 174T cells after 72 hrs by formazan test; type: functional, cell-based; settings: LS174T
[8] = Acute toxicity in bovine EBTr cells at 50 uM after 72 hrs; type: cell-based, Bos taurus; settings: cattle
EBTr [9] = assay: Antiviral activity against Bovine viral diarrhea virus Oregon C24V genotype 1 […] infected in bovine EBTr cells assesed as inhibition of virus-induced cytopathic effect at 50 uM after 72 hrs by MTT assay; type: functional, cell-based; settings: Bovine viral diarrhea virus strain Oregon C24V
[10] = test system: Bovine viral diarrhea virus strain Oregon C24V; assay: Antiviral activity against Bovine viral diarrhea virus Oregon C24V genotype 1 […] assessed as reduction in viral RNA release at 50 uM by RT-PCR analysis; type: functional
SK-HEP1 [11] = assay: Acute toxicity in human SKHEP1 cells at IC50 after 6 hrs by formazan test; type: cell-based; settings: sk-hep1, 6 h
[12] = Acute toxicity in human LS 174T cells at IC50 after 6 hrs by formazan test; type: cell-based; settings: ls174t
HepG2 [13] = assay: Acute toxicity in human HepG2 cells at IC50 after 6 hrs by formazan test; type: cell-based; settings: hepg2, 6 h
SK-HEP1 [14] = assay: Cytotoxicity against human SKHEP1 cells incubated for 1 hr prior to ferrosanol addition measured after 72 hrs; type: functional, cell-based
SK-HEP1 [15] = assay: Cytotoxicity against human SKHEP1 cells incubated for 1 hr prior to hemin addition measured after 72 hrs; type: functional, cell-based
[16] = Cytotoxicity against bovine EBTr cells at 20 to 100 uM after 72 hrs by MTT assay; type: cell-based, Bos taurus; settings: cattle
SK-HEP1 [17] = assay: Cytotoxicity against human SKHEP1 cells after 72 hrs in presence of ferrosanol; type: functional, cell-based
[18] = Cytotoxicity against human HepG2(2.2.15) cells assessed as reduction in cell viability at 1 uM measured on day 21 by natural Red test; type: cell-based; settings: hepg2 2.2.15, 1 µM
SK-HEP1 [19] = assay: Cytotoxicity against human SKHEP1 cells after 72 hrs in presence of hemin; type: functional, cell-based
Hepatitis B virus = assay: Antiviral activity against Hepatitis B virus infected in human HepG2(2.2.15) cells assessed as reduction in HBV-DNA release at < 0.1 uM measured on day 21; type: functional; parameters: scale not given: the % may be the effect or the level left
[20] = Cytotoxicity against human HepG2(2.2.15) cells assessed as reduction in cell viability at 0.1 to 1 uM measured on day 21 by natural Red test; type: cell-based; settings: hepg2 2.2.15, 1 µM
EBTr [21] = assay: Antiviral activity against Bovine viral diarrhea virus Oregon C24V genotype 1 […] infected in bovine EBTr cells assessed as inhibition of virus-induced cytopathic effect at 50 uM incubated 1 hr prior to ferrosanol addition measured after 72 hrs; type: functional, cell-based; settings: Bovine viral diarrhea virus strain Oregon C24V
EBTr [22] = assay: Antiviral activity against Bovine viral diarrhea virus Oregon C24V genotype 1 […] infected in bovine EBTr cells assessed as inhibition of virus-induced cytopathic effect at 50 uM incubated 1 hr prior to hemin addition measured after 72 hrs; type: functional, cell-based; settings: Bovine viral diarrhea virus strain Oregon C24V
LS174T = assay: as §1; type: functional, cell-based

SMILES	Activity (EBTr [1])	IC50 (HepG2 [2]) [µM]	Activity [3]	IC50 (SK-HEP1 [4]) [µM]	Activity [6]	IC50 [7] [µM]	Activity [8]	Activity (EBTr [9])	Activity [10]	Activity (SK-HEP1 [11])	Activity [12]	Activity (HepG2 [13])	Activity [16]	Activity [18]	further results
C[C@H]1[C@@H](OC(=O)C(F)(F)C(F)(F)F)O[C@@H]2O[C@@]3(C)CC[C@H]4[C@H](C)CC[C@@H]1[C@@]24OO3	Dose-dependent effect	200	Non-toxic	150	Non-toxic	> 200	Non-toxic	Active	inactive						Activity [5]: Toxic
CC(=O)O[C@H]1O[C@@H]2O[C@@]3(C)CC[C@H]4[C@H](C)CC[C@@H]([C@H]1C)[C@@]24OO3	Dose-dependent effect	60	Non-toxic	4	Non-toxic	70	Non-toxic	Active	Active	Non-toxic	Non-toxic	Non-toxic			Activity [5]: Toxic
CCCC(CCC)C(=O)O[C@H]1O[C@@H]2O[C@@]3(C)CC[C@H]4[C@H](C)CC[C@@H]([C@H]1C)[C@@]24OO3	inactive	3	Toxic	1		5	Non-toxic	inactive	Active	Non-toxic	Non-toxic	Non-toxic	Toxic	Toxic	Activity (SK-HEP1 [14]): Active; Activity (SK-HEP1 [15]): Active; Activity (SK-HEP1 [17]): Active; Activity (SK-HEP1 [19]): Active
C[C@H]1[C@@H](OC(=O)C(C)(C)C)O[C@@H]2O[C@@]3(C)CC[C@H]4[C@H](C)CC[C@@H]1[C@@]24OO3	Active	40	Toxic	9		70	Non-toxic	inactive	Active	Non-toxic	Non-toxic	Non-toxic	Toxic	Toxic	
CCC(C)O[C@H]1O[C@@H]2O[C@@]3(C)CC[C@H]4[C@H](C)CC[C@@H]([C@H]1C)[C@@]24OO3 (some centres not stated)	Active	50	Toxic	10		70	Non-toxic	inactive	Active	Non-toxic	Non-toxic	Non-toxic	Toxic		Activity (Hepatitis B virus): 50%; Activity [20]: Toxic
C[C@@H]1CC[C@H]2[C@@H](C)C(=O)O[C@@H]3O[C@@]4(C)CC[C@@H]1[C@]32OO4 [ARTEMISININ]		> 200		> 200		> 200									
CC1=CO[C@@H]2O[C@]3(C)CC[C@H]4[C@H](C)CC[C@@H]1[C@@]24OO3 [ANHYDRODIHYDROARTEMISININ]	Dose-dependent effect	200	Non-toxic	30	Non-toxic	> 200	Non-toxic	Active	Active						Activity (Hepatitis B virus): 50%; Activity (EBTr [21]): Active; Activity [20]: Toxic; Activity (EBTr [22]): Active
C[C@H]1[C@@H](OC(=O)N(C)C)O[C@@H]2O[C@@]3(C)CC[C@H]4[C@H](C)CC[C@@H]1[C@@]24OO3	Dose-dependent effect	70	Non-toxic	25	Non-toxic	100	Non-toxic	Active	inactive						Activity [5]: Toxic
C[C@H]1[C@@H](O)O[C@@H]2O[C@@]3(C)CC[C@H]4[C@H](C)CC[C@@H]1[C@@]24OO3 [ARTENIMOL]	Active	70	Toxic	30		120	Non-toxic	Active	Active				Toxic	Toxic	Activity (HepG2 [2]): Dose-dependent effect; Activity (SK-HEP1 [4]): Dose-dependent effect; Activity (LS174T): Dose-dependent effect
C[C@H]1[C@H](OC(=O)CCC(=O)O)O[C@@H]2O[C@@]3(C)CC[C@H]4[C@H](C)CC[C@@H]1[C@@]24OO3 [ARTESUNATE]		20		10		10				Toxic	Toxic	Toxic			Activity (SK-HEP1 [14]): Active; Activity (SK-HEP1 [15]): Active; Activity (HepG2 [2]): Dose-dependent effect; Activity (SK-HEP1 [4]): Dose-dependent effect; Activity (LS174T): Dose-dependent effect; Activity (SK-HEP1 [17]): Active; Activity (SK-HEP1 [19]): Active
CCCC(=O)O[C@H]1O[C@@H]2O[C@@]3(C)CC[C@H]4[C@H](C)CC[C@@H]([C@H]1C)[C@@]24OO3	Active	100	Non-toxic	2	Non-toxic	130	Non-toxic	Active	inactive	Non-toxic	Non-toxic	Non-toxic		Toxic	

From ChEMBL document CHEMBL2396627, “Novel artemisinin derivatives with potential usefulness against liver/colon cancer and viral hepatitis” (Bioorg Med Chem, 2013)
